The source made the active and inactive calls. No rule for the calls is given here.

This data set deals with CCRIS mutagenicity, Ames/micronucleus/aberration tests. As to the kind of experiment: CCRIS mutagenicity studies.
Setting [1] is: Test System: AMES SALMONELLA TYPHIMURIUM, Strain/Indicator: TA98, Metabolic Activation: NONE, Method: STANDARD PLATE.
Where [2] appears, read: Test System: AMES SALMONELLA TYPHIMURIUM, Strain/Indicator: TA100, Metabolic Activation: NONE, Method: STANDARD PLATE.
Setting [3] is: Test System: AMES SALMONELLA TYPHIMURIUM, Strain/Indicator: TA102, Metabolic Activation: NONE, Method: STANDARD PLATE.
Where [4] appears, read: Test System: AMES SALMONELLA TYPHIMURIUM, Strain/Indicator: TA98, Metabolic Activation: NONE, Method: PREINCUBATION
Setting [5] is: Test System: AMES SALMONELLA TYPHIMURIUM, Strain/Indicator: TA100, Metabolic Activation: NONE, Method: PREINCUBATION
Setting [6] is: Test System: AMES SALMONELLA TYPHIMURIUM, Strain/Indicator: TA1535, Metabolic Activation: NONE, Method: PREINCUBATION
[7] abbreviates: Test System: AMES SALMONELLA TYPHIMURIUM, Strain/Indicator: TA1537, Metabolic Activation: NONE, Method: PREINCUBATION

Consider `O=C(O)COc1cc(Cl)c(Cl)cc1Cl`, for which the mutagenic call is, setting by setting: (End Point: IN VITRO CHROMOSOMAL ABERRATIONS, Test System: CHINESE HAMSTER OVARY CELLS, Metabolic Activation: NONE) “inactive; negative”; (End Point: IN VITRO CHROMOSOMAL ABERRATIONS, Test System: CHINESE HAMSTER OVARY CELLS, Metabolic Activation: RAT, LIVER, S-9, AROCLOR 1254) “active; positive; precipitation occurred at all doses”; (Test System: AMES SALMONELLA TYPHIMURIUM, Strain/Indicator: TA97, Metabolic Activation: NONE, Method: STANDARD PLATE) “inactive; negative”; (Test System: AMES SALMONELLA TYPHIMURIUM, Strain/Indicator: TA97, Metabolic Activation: RAT, LIVER, S-9, AROCLOR 1254, Method: STANDARD PLATE) “inactive; negative”; (Test System: AMES SALMONELLA TYPHIMURIUM, Strain/Indicator: TA98, Metabolic Activation: NONE) “inactive; negative”; under setting [1], “inactive; negative”. Also, the mutagenic call runs as follows: (Test System: AMES SALMONELLA TYPHIMURIUM, Strain/Indicator: TA98, Metabolic Activation: RAT, LIVER, S-9, AROCLOR 1254) “inactive; negative”; (Test System: AMES SALMONELLA TYPHIMURIUM, Strain/Indicator: TA98, Metabolic Activation: RAT, LIVER, S-9, AROCLOR 1254, Method: STANDARD PLATE) “inactive; negative”; (Test System: AMES SALMONELLA TYPHIMURIUM, Strain/Indicator: TA100, Metabolic Activation: NONE) “inactive; negative”; under setting [2], “inactive; negative”; (Test System: AMES SALMONELLA TYPHIMURIUM, Strain/Indicator: TA100, Metabolic Activation: RAT, LIVER, S-9, AROCLOR 1254) “inactive; negative”; (Test System: AMES SALMONELLA TYPHIMURIUM, Strain/Indicator: TA100, Metabolic Activation: RAT, LIVER, S-9, AROCLOR 1254, Method: STANDARD PLATE) “inactive; negative”. Besides, the mutagenic call (Test System: AMES SALMONELLA TYPHIMURIUM, Strain/Indicator: TA102, Metabolic Activation: NONE) was “inactive; negative”; the mutagenic call under setting [3] was “inactive; negative”; the mutagenic call (Test System: AMES SALMONELLA TYPHIMURIUM, Strain/Indicator: TA102, Metabolic Activation: RAT, LIVER, S-9, AROCLOR 1254) is “inactive; negative”; the mutagenic call (Test System: AMES SALMONELLA TYPHIMURIUM, Strain/Indicator: TA102, Metabolic Activation: RAT, LIVER, S-9, AROCLOR 1254, Method: STANDARD PLATE) is “inactive; negative”; the mutagenic call (Test System: AMES SALMONELLA TYPHIMURIUM, Strain/Indicator: TA104, Metabolic Activation: NONE) is “inactive; negative”; the mutagenic call (Test System: AMES SALMONELLA TYPHIMURIUM, Strain/Indicator: TA104, Metabolic Activation: RAT, LIVER, S-9, AROCLOR 1254) was “inactive; negative”.
With `COC1=CC(=O)c2c(ncc3c2[nH]c2ccncc23)C1=O`, the mutagenic call (Test System: AMES SALMONELLA TYPHIMURIUM, Strain/Indicator: TA97A, Metabolic Activation: NONE, Method: STANDARD PLATE) is “active; positive”; the mutagenic call (Test System: AMES SALMONELLA TYPHIMURIUM, Strain/Indicator: TA97A, Metabolic Activation: RAT LIVER S-9, AROCLOR 1254, Method: STANDARD PLATE) was “inactive; negative”; the mutagenic call under setting [1] is “active; positive”; the mutagenic call (Test System: AMES SALMONELLA TYPHIMURIUM, Strain/Indicator: TA98, Metabolic Activation: RAT LIVER S-9, AROCLOR 1254, Method: STANDARD PLATE) is “active; positive”; the mutagenic call under setting [2] was “active; positive”; the mutagenic call (Test System: AMES SALMONELLA TYPHIMURIUM, Strain/Indicator: TA100, Metabolic Activation: RAT LIVER S-9, AROCLOR 1254, Method: STANDARD PLATE) is “active; positive”. Also, the mutagenic call is “active; positive” under setting [3] and “active; positive” (Test System: AMES SALMONELLA TYPHIMURIUM, Strain/Indicator: TA102, Metabolic Activation: RAT LIVER S-9, AROCLOR 1254, Method: STANDARD PLATE).
As to `CC(=O)OCc1ccco1`, the mutagenic call reads like this: (Test System: AMES SALMONELLA TYPHIMURIUM, Strain/Indicator: TA98, Metabolic Activation: HAMSTER, LIVER, S-9, AROCLOR 1254 (10%), Method: PREINCUBATION) “inactive; negative”; under setting [4], “inactive; negative”; (Test System: AMES SALMONELLA TYPHIMURIUM, Strain/Indicator: TA98, Metabolic Activation: RAT, LIVER, S-9, AROCLOR 1254 (10%), Method: PREINCUBATION) “active; positive”; (Test System: AMES SALMONELLA TYPHIMURIUM, Strain/Indicator: TA100, Metabolic Activation: HAMSTER, LIVER, AROCLOR 1254 (10%), Method: PREINCUBATION) “inactive; negative”; under setting [5], “active; positive”; (Test System: AMES SALMONELLA TYPHIMURIUM, Strain/Indicator: TA100, Metabolic Activation: RAT, LIVER, S-9, AROCLOR 1254 (10%), Method: PREINCUBATION) “active; positive”. Besides, the mutagenic call is “inactive; negative” (Test System: AMES SALMONELLA TYPHIMURIUM, Strain/Indicator: TA1535, Metabolic Activation: HAMSTER, LIVER, S-9, AROCLOR 1254 (10%), Method: PREINCUBATION); “inactive; negative” under setting [6]; “inactive; negative” (Test System: AMES SALMONELLA TYPHIMURIUM, Strain/Indicator: TA1535, Metabolic Activation: RAT, LIVER, S-9, AROCLOR 1254 (10%), Method: PREINCUBATION); “inactive; negative” (Test System: AMES SALMONELLA TYPHIMURIUM, Strain/Indicator: TA1537, Metabolic Activation: HAMSTER, LIVER, S-9, AROCLOR 1254 (10%), Method: PREINCUBATION); “inactive; negative” under setting [7]; “inactive; negative” (Test System: AMES SALMONELLA TYPHIMURIUM, Strain/Indicator: TA1537, Metabolic Activation: RAT, LIVER, S-9, AROCLOR 1254 (10%), Method: PREINCUBATION).
In the case of `CC(=O)NNC(=O)c1ccccn1`, the mutagenic call reads like this: (Test System: AMES SALMONELLA TYPHIMURIUM, Strain/Indicator: TA98, Metabolic Activation: HAMSTER, LIVER, S-9, AROCLOR 1254, Method: PREINCUBATION) “inactive; negative”; under setting [4], “inactive; negative”; (Test System: AMES SALMONELLA TYPHIMURIUM, Strain/Indicator: TA98, Metabolic Activation: RAT, LIVER, S-9, AROCLOR 1254, Method: PREINCUBATION) “inactive; negative”; (Test System: AMES SALMONELLA TYPHIMURIUM, Strain/Indicator: TA100, Metabolic Activation: HAMSTER, LIVER, S-9, AROCLOR 1254, Method: PREINCUBATION) “inactive; negative”; under setting [5], “inactive; negative”; (Test System: AMES SALMONELLA TYPHIMURIUM, Strain/Indicator: TA100, Metabolic Activation: RAT, LIVER, S-9, AROCLOR 1254, Method: PREINCUBATION) “inactive; negative”. Moreover, the mutagenic call by setting is: (Test System: AMES SALMONELLA TYPHIMURIUM, Strain/Indicator: TA1535, Metabolic Activation: HAMSTER, LIVER, S-9, AROCLOR 1254, Method: PREINCUBATION) “inactive; negative”; under setting [6], “inactive; negative”; (Test System: AMES SALMONELLA TYPHIMURIUM, Strain/Indicator: TA1535, Metabolic Activation: RAT, LIVER, S-9, AROCLOR 1254, Method: PREINCUBATION) “inactive; negative”; (Test System: AMES SALMONELLA TYPHIMURIUM, Strain/Indicator: TA1537, Metabolic Activation: HAMSTER, LIVER, S-9, AROCLOR 1254, Method: PREINCUBATION) “inactive; negative”; under setting [7], “inactive; negative”; (Test System: AMES SALMONELLA TYPHIMURIUM, Strain/Indicator: TA1537, Metabolic Activation: RAT, LIVER, S-9, AROCLOR 1254, Method: PREINCUBATION) “inactive; negative”.
Take `c1ccc2c(c1)-c1cc3ccccc3c3cc4c(c-2c13)CCCC4`: the mutagenic call (Test System: AMES SALMONELLA TYPHIMURIUM, Strain/Indicator: TA100, Metabolic Activation: RAT, LIVER, S-9, 3-METHYLCHOLANTHRENE, Method: STANDARD PLATE) is “active; positive”.

Source of the values: PubChem BioAssay AID1259407 (Chemical Carcinogenesis Research Information System (CCRIS), 2018).
